Laboratory results as given in publication PMC2715142 (Lipids, 2008).
pEC50: −log10 of the molar value. Read-outs that look alike come from different tables or passages of the source.

Key:
TCCYP51 [1] = molecular target: T1, TCCYP51 (Trypanosoma cruzi, UniProt Q7Z1V1); format: biochemical; conditions: T. cruzi CYP51, initial rate
TCCYP51 [2] = molecular target: T1, TCCYP51; format: binding; conditions: for spectral response: TCCYP51
Trypanosoma cruzi [3] = conditions: read-out: published EC50 values in TC cells; cited from earlier work
TCCYP51 [4] = molecular target: T1, TCCYP51; conditions: cited from earlier work
TCCYP51 [5] = molecular target: T1, TCCYP51; conditions: cited from earlier work; remark: listed apart in the source
Trypanosoma cruzi [6] = assay: TC cellular growth inhibition; format: cell-based
TBCYP51 = TBCYP51 (Trypanosoma brucei brucei, UniProt Q385E8); format: binding
I105F mutant of TCCYP51 = I105F mutant of TCCYP51 (Trypanosoma cruzi, UniProt Q7Z1V1, I105F); format: binding
Trypanosoma brucei = assay: TB cellular growth inhibition; format: cell-based; conditions: read-out: EC50 / 50% cell growth inhibition for TB, form not stated
[7] = system: TC infected cardiomyoblasts; assay: inhibition of TC multiplication within cardiomyoblasts; format: cell-based, Trypanosoma cruzi; conditions: 30 µM

For O=C(Cn1ccnc1[N+](=O)[O-])NCc1ccccc1 [benznidazole], the “I/E2 (5 min), molar ratio inhibitor/enzyme which causes a twofold decrease in the activity” value (TCCYP51 [1]) is listed as 42, the spectral response (TCCYP51 [2]) is listed as “does not induce spectral changes” and the pEC50 (Trypanosoma cruzi [3]) is listed as 4.30 to 4.60.

In the case of CC(C)CCC[C@@H](C)[C@H]1CC[C@@]2(CN)C3=CCC4C(C)(C)[C@@H](O)CC[C@]4(C)[C@H]3CC[C@]12C (stereo partly drawn) [AL7, 4,4-dimethyl-14α-aminomethyl-cholest-7-en-3β-ol], the “I/E2 for the initial rate of TCCYP51 catalysis” value (TCCYP51 [4]) is given as 11 and the spectral response (TCCYP51 [5]) is given as “type 2 spectral responses”.

In the case of CC(C)CCC[C@@H](C)[C@H]1CC[C@@]2(CN)C3=C(CC[C@]12C)[C@@]1(C)CC[C@H](O)C(C)(C)C1CC3 (stereo partly drawn) [AL8, 4,4-dimethyl-14α-aminomethyl-cholest-8-en-3β-ol], the “I/E2 for the initial rate of TCCYP51 catalysis” value (TCCYP51 [4]) is given as 14 and the spectral response (TCCYP51 [5]) is given as “type 2 spectral responses”.

With O=C(NC(Cn1ccnc1)c1ccccc1)c1ccc(-c2ccc(Cl)cc2)cc1 (stereo not shown) [SDZ285604] the pEC50 (Trypanosoma cruzi [6]; read-out: EC50 (50% cellular growth inhibition), amastigotes (intracellular form) of TC) was greater than 6.00 and the pEC50 (Trypanosoma cruzi [6]; read-out: EC50 (50% cellular growth inhibition), trypomastigotes (extracellular form) of TC) was greater than 6.00.

For “32-Methylene cyclopropyl-lanost-7-enol [MCP]”, the spectral response (TBCYP51; TBCYP51) was “type 1 spectral responses”, the “high spin content (low to high spin transition in the heme iron)” value (TBCYP51; TBCYP51, maximal upon titration) was 85% and the spectral response (TCCYP51 [2]) was “type 1 spectral responses”. The “high spin content (low to high spin transition in the heme iron)” value (TCCYP51 [2]; TCCYP51, maximal upon titration) was 41%, the high spin form (I105F mutant of TCCYP51) was 87% and the spectral response (I105F mutant of TCCYP51) was “type 1 spectral responses”. For the same compound, the pEC50 (Trypanosoma brucei) was less than 4.30, the pEC50 (Trypanosoma cruzi [6]; read-out: 50% cell growth inhibition of TC, TC, form not stated) was 5.52 and the “parasite cells cleared from TC infected cardiomyoblasts” value [7] was “more than 90%”. The “number of intracellular parasites” value ([7]; 72 h, trypanosomes pre-incubated with compound) was “dramatic decrease in the number of intracellular parasites”.
